The source of these data is patent publication US20240246946A1, “MODULATORS OF TREX1” (Constellation Pharmaceuticals, Inc., priority 2021, published 2024).

Where only a bound is given, the exact number is not on record here.

The target of one assay is T1, hTREX1 (Homo sapiens, UniProt Q9NSU2).
T1 construct: host or cells: HCT116 dual cells
T1 sequence (Q9NSU2 1-314): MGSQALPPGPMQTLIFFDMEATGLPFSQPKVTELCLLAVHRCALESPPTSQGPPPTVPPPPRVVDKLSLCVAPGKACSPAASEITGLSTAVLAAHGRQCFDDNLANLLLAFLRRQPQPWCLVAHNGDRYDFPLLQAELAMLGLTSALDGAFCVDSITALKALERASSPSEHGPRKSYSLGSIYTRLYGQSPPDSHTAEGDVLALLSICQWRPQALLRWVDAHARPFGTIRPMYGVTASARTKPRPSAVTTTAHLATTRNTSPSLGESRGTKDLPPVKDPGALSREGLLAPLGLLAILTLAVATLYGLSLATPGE
The experiment in a line: hTREX1 HCT116 Cell Assay (HCT116 dual cells, Lucia luciferase reporter of Type I interferon induction). The format is cell-based. The following applies: TREX1i 4 h before pBR322/BstNI transfection, read after 48 h. An excerpt: HCT116 dual cells (Invivogen, San Diego, CA, USA) are derived from the human HCT116 colorectal carcinoma cell line. Cells have been selected for the stable integration of SEAP and Luciferase reporter genes, which expression is under the control of 5 tandem response elements for NF-KB/AP1 and STAT1/STAT2, respectively. The cell line was used to monitor Type I interferon induction and subsequent signaling by measuring the activity of the Lucia luciferase secreted in the culture medium.
HCT116 cells were plated in 96-well plate(s) at 40,000 cells/well in 100 uL DMEM supplemented with 10% FBS and 25 mM Hepes (pH 7.2-7.5). After overnight settling, cells were treated with TREX1i for 4 h (maximum DMSO fraction was 0.1%) before 1 ug/mL pBR322/BstNI restriction digest (New England Biolabs, Ipswich, MA, USA) was transfected with Lipofectamine LTX (ThermoFisher, Grand Island, NY, USA), according to product manual recommendations. Briefly, Lipofectamine LTX (0.35 uL/well) was diluted in OptiMEM (5 uL/well). pBR322/BstNI (100 ng/well) was diluted in OptiMEM (5 uL/well) before Plus reagent (0.1 uL/100 ng DNA) was added. After 5 min incubation at room temperature, the DNA mixture was mixed dropwise with the diluted Lipofectamine LTX. After an additional 10 min incubation, the transfection mix (10 uL/well) was added to the cells. Cells were maintained at 37 C for 48 h before monitoring the Lucia Luciferase activity from the cell culture medium.

Another assay addresses T2, full length mouse TREX1 (Mus musculus, UniProt Q91XB0).
T2 construct: N-terminally His-Tev tagged full length mouse TREX1; made in house; host or cells: E. coli
T2 sequence (Q91XB0 1-314): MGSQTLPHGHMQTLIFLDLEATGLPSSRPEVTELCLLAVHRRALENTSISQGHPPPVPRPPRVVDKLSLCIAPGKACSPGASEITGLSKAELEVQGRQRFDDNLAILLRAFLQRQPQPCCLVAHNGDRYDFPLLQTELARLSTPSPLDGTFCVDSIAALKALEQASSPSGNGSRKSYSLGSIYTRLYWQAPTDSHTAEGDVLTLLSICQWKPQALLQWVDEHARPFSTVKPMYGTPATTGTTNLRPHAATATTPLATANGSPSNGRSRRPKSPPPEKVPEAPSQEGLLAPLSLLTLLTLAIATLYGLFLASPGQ
The experiment in a line: mTREX1 Biochemical Assay (fluorescence, dsDNA substrate degradation). The following applies: biochemical, read-out: mTREX1 IC50. The method, boiled down: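 Reaction run 18 h at 25° C. with 60 nM TEX615/quencher-labelled dsDNA and 6 pM mouse TREX1 in Tris buffer (pH 7.4, 5 mM MgCl2, 1.0% DMSO), enzyme having sat 4 h with compound across 10 concentrations. EDTA quench; substrate degradation measured as fluorescence increase.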

Another assay has as its target T3, full length human TREX1 (Homo sapiens, UniProt Q9NSU2).
T3 construct: N-terminally His-Tev tagged full length human TREX1; made in house; host or cells: E. coli
T3 sequence (Q9NSU2 1-314): T1 sequence (Q9NSU2 1-314)
As to the kind of experiment: hTREX1 Biochemical Assay (fluorescence, dsDNA substrate degradation). The following applies: biochemical, read-out: hTREX1 IC50. The essentials: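 Fluorescence rises as enzyme degrades a quenched TEX615-labelled dsDNA substrate (60 nM) in 50 mM Tris, 150 mM NaCl, 5 mM MgCl2, pH 7.4. Full-length His-Tev-tagged human TREX1, 4 pM, sits with compound 4 hours at 25° C before substrate; reaction 18 hours, stopped with EDTA.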

In assay [1] the target is T4, human TREX2 (residues M44-A279) (Homo sapiens, UniProt Q9BQ50).
T4 construct: human TREX2 (residues M44-A279, expressed in E. coli); made in house; host or cells: E. coli
T4 sequence (Q9BQ50 44-279 isoform Q9BQ50-1): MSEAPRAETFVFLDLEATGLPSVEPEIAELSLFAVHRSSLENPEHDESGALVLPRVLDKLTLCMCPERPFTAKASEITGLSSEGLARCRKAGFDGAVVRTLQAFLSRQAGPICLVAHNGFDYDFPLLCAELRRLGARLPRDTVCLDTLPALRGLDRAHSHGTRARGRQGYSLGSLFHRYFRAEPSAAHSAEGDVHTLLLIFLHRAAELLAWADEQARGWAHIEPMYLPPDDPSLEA
As to the kind of experiment: hTREX2 Biochemical Assay (fluorescence, dsDNA substrate degradation). The conditions noted are these: biochemical selectivity for hTREX1 vs hTREX2. The method, boiled down: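 Fluorogenic dsDNA degradation read at 615 nm (570 nm excitation) after EDTA quench. Final 60 nM substrate, 50 pM His-Tev-tagged enzyme, 5 mM MgCl2, pH 7.4, 1.0% DMSO; 4 h compound–enzyme preincubation then 18 h reaction, both 25 °C; 10-point titration.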

As for `Cc1nn(C)cc1C(c1ccccc1C#N)C(C)c1nc(C(=O)Nc2cnoc2)c(O)c(=O)n1C` (single isomer, unassigned) [Example 3 D2E2], the IC50 against hTREX1 is above 100 nM; at full length mouse TREX1, above 10 nM; at full length human TREX1, 1 to 10 nM.
On the same counts, the results for `Cc1c(C(c2ccccc2C#N)C(C)c2nc(C(=O)Nc3cnoc3)c(O)c(=O)n2C)cnn1C` (single isomer, unassigned) [Example 4 D1E1] are 10 to 100 nM, 1 to 10 nM and below 1 nM.
The corresponding values for `Cc1ccc(C(c2ccccc2C#N)C(C)c2nc(C(=O)Nc3cnoc3)c(O)c(=O)n2C)cn1` (single isomer, unassigned) [Example 5 D2E2] are above 100 nM, above 10 nM and 1 to 10 nM.
Take `Cc1cc(C(c2ccccc2C#N)C(C)c2nc(C(=O)Nc3cnoc3)c(O)c(=O)n2C)ccn1` (single isomer, unassigned) [Example 6 D2E2]: the IC50 was above 100 nM on hTREX1, above 10 nM at full length mouse TREX1 and 1 to 10 nM on full length human TREX1.
The corresponding values for `CC(c1nc(C(=O)Nc2cnoc2)c(O)c(=O)n1C)C(c1cnn(C)c1)c1cccnc1C#N` (single isomer, unassigned) [Example 7 D1E1] are above 100 nM, above 10 nM and 1 to 10 nM.
The corresponding values for `CC(c1nc(C(=O)Nc2cnoc2)c(O)c(=O)n1C)C(c1cnn(C)c1)c1ccncc1C#N` (single isomer, unassigned) [Example 8 D1E2] are 10 to 100 nM, 1 to 10 nM and below 1 nM.
On the same counts, the results for `CC(c1nc(C(=O)Nc2cnoc2)c(O)c(=O)n1C)C(c1cnn(C)c1)c1ccncc1C#N` (single isomer, unassigned) [Example 8 D2E2] are above 100 nM, above 10 nM and 1 to 10 nM.
Turning to `CC(c1nc(C(=O)Nc2cnoc2)c(O)c(=O)n1C)C(c1ccccc1C#N)c1cn(C)nc1C#N` (single isomer, unassigned) [Example 10 D1E2], the IC50 against hTREX1 was 10 to 100 nM; on full length mouse TREX1 it was above 10 nM; on full length human TREX1, 1 to 10 nM.
On the same counts, the results for `COCCn1cc(C(c2cc(F)ccc2C#N)C(C)c2nc(C(=O)Nc3cnoc3)c(O)c(=O)n2C)cn1` (single isomer, unassigned) [Example 18 D1E2] are above 100 nM, 1 to 10 nM and below 1 nM.
In the case of `CC(c1nc(C(=O)Nc2cnoc2)c(O)c(=O)n1C)C(c1cnn(C)c1)c1c(C#N)cccc1C#N` (single isomer, unassigned) [Example 19 D1E2], the IC50 at hTREX1 is below 10 nM; at full length mouse TREX1, 1 to 10 nM; at full length human TREX1, below 1 nM.
Consider `CC(c1nc(C(=O)Nc2cnoc2)c(O)c(=O)n1C)C(c1cnn(C)c1)c1cc(F)c(F)cc1Cl` (single isomer, unassigned) [Example 28 D1E1], for which the IC50 against hTREX1 is 10 to 100 nM; at full length mouse TREX1, 1 to 10 nM; on full length human TREX1 it was below 1 nM.
On the same counts, the results for `CC(c1nc(C(=O)Nc2cnoc2)c(O)c(=O)n1C)C(c1cnn(CCN2CCNCC2)c1)c1ccccc1C#N` (single isomer, unassigned) [Example 31 D1E1] are above 100 nM, 1 to 10 nM and below 1 nM.
The corresponding values for `CC(c1nc(C(=O)Nc2cnoc2)c(O)c(=O)n1C)C(c1cnn(CCN2CCN(C)CC2)c1)c1ccccc1C#N` (single isomer, unassigned) [Example 32 D1E1] are above 100 nM, 1 to 10 nM and below 1 nM.
The corresponding values for `CC(c1nc(C(=O)Nc2cnoc2)c(O)c(=O)n1C)C(c1cnn(CCCN(C)C)c1)c1ccccc1C#N` (single isomer, unassigned) [Example 34 D1E1] are above 100 nM, 1 to 10 nM and below 1 nM.
In the case of `CC(c1nc(C(=O)Nc2cnoc2)c(O)c(=O)n1C)C(c1cnn(CC(C)(C)O)c1)c1ccccc1C#N` (single isomer, unassigned) [Example 36 D1E1], the IC50 was above 100 nM on hTREX1, 1 to 10 nM on full length mouse TREX1 and below 1 nM on full length human TREX1.
Take `COC(C)(C)Cn1cc(C(c2ccccc2C#N)C(C)c2nc(C(=O)Nc3cnoc3)c(O)c(=O)n2C)cn1` (single isomer, unassigned) [Example 37 D1E1]: the IC50 was 10 to 100 nM against hTREX1, 1 to 10 nM at full length mouse TREX1 and below 1 nM on full length human TREX1.
On hTREX1, `Cc1cnc(C)c(C(c2cc(F)ccc2C#N)C(C)c2nc(C(=O)Nc3cnoc3)c(O)c(=O)n2C)n1` (single isomer, unassigned) [Example 119 D1E1] had an IC50 below 10 nM.
Regarding `Cc1nn(C)c(C)c1C(c1cc(F)ccc1Cl)C(C)c1nc(C(=O)Nc2cnoc2)c(O)c(=O)n1C` (single isomer, unassigned) [Example 154 D1E2], the IC50 at full length mouse TREX1 and at full length human TREX1 was above 10 nM each time. Further, the “hTREX1 vs hTREX2 selectivity” value in assay [1] was “A (A = <25 fold selective for hTREX1)”.
Regarding `CC(c1nc(C(=O)Nc2cnoc2)c(O)c(=O)n1C)C(c1ccccc1)c1cccnc1C#N` (single isomer, unassigned) [Example 155 D1E1], the IC50 at full length mouse TREX1 and on full length human TREX1 was above 10 nM each time. Also, the “hTREX1 vs hTREX2 selectivity” value in assay [1] is listed as “B (B = 25 to 50-fold selective for hTREX1)”.
As to `CC(c1nc(C(=O)Nc2cnoc2)c(O)c(=O)n1C)C(c1ccccc1)c1cccnc1C#N` (single isomer, unassigned) [Example 155 D2E2], the IC50 at full length mouse TREX1 and on full length human TREX1 was above 10 nM each time. For the same compound, the “hTREX1 vs hTREX2 selectivity” value in assay [1] is reported as “A (A = <25 fold selective for hTREX1)”.
Take `Cc1nnc(C(c2ccccc2Cl)C(C)c2nc(C(=O)Nc3cnoc3)c(O)c(=O)n2C)o1` (single isomer, unassigned) [Example 156 D1E2]: the IC50 on full length mouse TREX1 and at full length human TREX1 was above 10 nM in each case. For the same compound, the “hTREX1 vs hTREX2 selectivity” value in assay [1] is listed as “A (A = <25 fold selective for hTREX1)”.
Turning to `Cc1nnc(C(c2ccccc2Cl)C(C)c2nc(C(=O)Nc3cnoc3)c(O)c(=O)n2C)o1` (single isomer, unassigned) [Example 156 D2E1], the IC50 on full length mouse TREX1 and on full length human TREX1 was above 10 nM in each case. In assay [1], the “hTREX1 vs hTREX2 selectivity” value was “A (A = <25 fold selective for hTREX1)”.
`Cc1nnc(C(c2ccccc2Cl)C(C)c2nc(C(=O)Nc3cnoc3)c(O)c(=O)n2C)o1` (single isomer, unassigned) [Example 156 D2E2]: the IC50 at full length mouse TREX1 was above 10 nM; at full length human TREX1, 1 to 10 nM. Also, in assay [1], the “hTREX1 vs hTREX2 selectivity” value was “B (B = 25 to 50-fold selective for hTREX1)”.
